Laboratory results reported in US20080125432A1 (Devgen NV, priority 2004, published 2008).

Tested on: arterially perfused rabbit left ventricular wedge preparation
Assay: Arterially perfused rabbit left ventricular wedge preparation (QT, Tp-e, EAD, TdP)
Conditions: 2000 ms BCL; for Tp-e: control 52.2 ± 3.7; for QT: control 288.2 ± 11.1; for EAD: events per preparations
Text: The compounds were checked for their effect on the QT interval, the Tp-e interval (Yan and Antzelevitch, Circulation 1998; 98:1928-1936; Yan et al, Circulation 2001; 103:2851-2856) that approximates closely to transmural dispersion of repolarization (TDR), the Tp-e/QT ratio that reflects the potential of phase 2 early afterdepolarization (EAD) development in sub- and/or endocardium (Joshi et al, Journal of Electrocardiology, 2004, 34 (suppl): 7-14) and the phenomena dependent on phase 2 EAD (i.e. R on T extrasystole and TdP) in the isolated arterially-perfused rabbit ventricular wedge preparation.
Female rabbits weighting 2.5-3 kg were anticoagulated with heparin and anesthetized with pentobarbital (30-35 mg/kg, i.v.). The chest was opened via left thoracotomy, and the heart was excised and placed in a cardioplegic solution consisting of cold (4° C.) normal Tyrode s solution (in mmol/l: NaCl 129, KCl 4.0, CaCl2 1.8, NaH2PO4 0.9, MgSO4 0.5, NaHCO3 20, glucose 5.5). A transmural wedge, approximately 1.5 cm wide and 2-3 cm long, was dissected from the left ventricle and rapidly cannulated via the left anterior descending artery or the circumflex artery and perfused with cardioplegic solution for <4 min. The preparation was then transferred to a tissue bath (100 ml) and perfused with warm (35.7±0.1° C.) Tyrode's solution containing 4 mM K^+ buffered ? with 95% O2 and 5% CO2. Perfusion pressure was set at 40-50 mmHg by using a peristaltic pump. The preparation was paced at a basic cycle length of 1000 ms and allowed to equilibrate for approximately 1 h, the time necessary to achieve electrical stability. Electrical pacing was delivered via bipolar silver electrodes insulated except at the tips and applied to the endocardial surface.
After the preparation equilibrated for one hour, the experiment was initiated. During the infusion of the compounds, the preparation was stimulated from the endocardium at basic cycle lengths of 1000 ms from the beginning of the infusion to the 20th minute and then at 2000 ms from the 20th minute to the 30th minute. At the end of each pacing cycle length, the ECG signal was sampled for 1 to 2 min at a sampling rate of 1562 Hz (Spike 2 software, CED, England)
A transmural ECG signal was recorded in all experiments. The QT interval was defined as the time from the onset of the QRS to the point at which the final downslope of the T wave across isoelectric line. The QT interval values were derived from the mean values of four consecutive beats. (Yan and Antzelevitch, Circulation 1998; Yan et al, Circulation 2001; 103:2851-2856; and Antzelevitch, Journal of Electrocardiology 2004; 37(Suppl): 15-24).

## COc1ccccc1Nc1nc(C)c(C(=O)N[C@H]2CCC[C@@H]2OCc2ccccc2)s1 [Compound 68, 2-(2-methoxy-phenylamino)-4-methyl-thiazole-5-carboxylic acid (1S,2S)-2-(benzyloxycyclopent-1-yl) amide]
1 μmol/l
  TdP Score: 0.0 ± 0.0
  Tp-e: 52.0 ± 3.9 ms
  QT: 287.6 ± 11.4 ms
  EAD: 0/5
3 μmol/l
  TdP Score: 0.0 ± 0.0
  Tp-e: 51.4 ± 4.0 ms
  QT: 286.6 ± 12.0 ms
  EAD: 0/5
